The text below walks through data of patent US20230339878A1, “SLC26A3 INHIBITORS AND USE THEREOF” (THE REGENTS OF THE UNIVERSITY OF CALIFORNIA, priority 2018, published 2023).

One test concerns the target T1, murine slc26a3 (Mus musculus, UniProt Q9WVC8).
T1 construct: host or cells: Fischer rat thyroid (FRT) cells expressing YFP, clonal line FRT-YFP-slc26a3
T1 sequence (Q9WVC8 1-757): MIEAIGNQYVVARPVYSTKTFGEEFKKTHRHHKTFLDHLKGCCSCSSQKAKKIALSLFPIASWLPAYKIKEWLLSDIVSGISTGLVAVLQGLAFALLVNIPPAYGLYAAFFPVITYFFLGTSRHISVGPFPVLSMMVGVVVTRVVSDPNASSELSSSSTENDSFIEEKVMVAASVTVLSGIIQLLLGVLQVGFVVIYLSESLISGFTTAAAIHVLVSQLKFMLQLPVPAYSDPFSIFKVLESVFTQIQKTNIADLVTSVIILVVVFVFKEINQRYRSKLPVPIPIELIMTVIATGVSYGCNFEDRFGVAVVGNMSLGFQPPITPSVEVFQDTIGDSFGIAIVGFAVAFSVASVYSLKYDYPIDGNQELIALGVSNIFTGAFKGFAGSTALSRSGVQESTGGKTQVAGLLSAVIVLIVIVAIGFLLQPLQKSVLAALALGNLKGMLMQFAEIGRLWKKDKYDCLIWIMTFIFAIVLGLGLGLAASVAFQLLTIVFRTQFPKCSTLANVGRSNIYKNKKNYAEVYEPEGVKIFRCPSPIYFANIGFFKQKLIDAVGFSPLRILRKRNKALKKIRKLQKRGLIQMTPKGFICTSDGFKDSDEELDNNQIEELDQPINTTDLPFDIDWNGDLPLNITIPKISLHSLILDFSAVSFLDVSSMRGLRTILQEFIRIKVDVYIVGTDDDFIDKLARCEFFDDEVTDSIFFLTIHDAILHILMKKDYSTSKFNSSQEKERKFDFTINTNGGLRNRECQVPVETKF
The test can be described thus: slc26a3-mediated Cl-/I- exchange, YFP fluorescence quenching in FRT-YFP-slc26a3 cells. It counts as cell-based.

The target of another test is T2, slc26a3 (Mus musculus, UniProt Q9WVC8).
T2 construct: host or cells: Fischer rat thyroid (FRT) cells expressing YFP, clonal line FRT-YFP-slc26a3
T2 sequence (Q9WVC8 1-757): T1 sequence (Q9WVC8 1-757)
The experiment in a line: slc26a3-mediated Cl-/SCN- exchange. It is filed as cell-based, murine. As to conditions: read-out: IC50 for inhibition of slc26a3-mediated Cl-/SCN- exchange. The procedure:
Concentration-dependence measurements for inhibition of slc26a3-mediated exchange of Cl^- and HCO3^-, the physiologically relevant activity of slc26a3, was measured using slc26a3-expressing FRT cells labeled with BCECF as a cytoplasmic pH sensor. Labeled cells were initially incubated in a Cl^--containing HCO3^- buffered solution, and HCO3^- influx / Cl^- efflux with cytoplasmic alkalinization was produced by addition of a gluconate-containing HCO3^- buffered solution. […] Concentration-dependence measurements for inhibition of slc26a3-mediated Cl^-/SCN^- exchange gave an IC50 of ~0.3 µM (FIG. 4B).

The target in the next test is T3, (human) SLC26A3 (Homo sapiens, UniProt P40879).
T3 construct: host or cells: HEK293 cells transduced with lentivirus, then transfected with YFP
T3 sequence (P40879 1-764): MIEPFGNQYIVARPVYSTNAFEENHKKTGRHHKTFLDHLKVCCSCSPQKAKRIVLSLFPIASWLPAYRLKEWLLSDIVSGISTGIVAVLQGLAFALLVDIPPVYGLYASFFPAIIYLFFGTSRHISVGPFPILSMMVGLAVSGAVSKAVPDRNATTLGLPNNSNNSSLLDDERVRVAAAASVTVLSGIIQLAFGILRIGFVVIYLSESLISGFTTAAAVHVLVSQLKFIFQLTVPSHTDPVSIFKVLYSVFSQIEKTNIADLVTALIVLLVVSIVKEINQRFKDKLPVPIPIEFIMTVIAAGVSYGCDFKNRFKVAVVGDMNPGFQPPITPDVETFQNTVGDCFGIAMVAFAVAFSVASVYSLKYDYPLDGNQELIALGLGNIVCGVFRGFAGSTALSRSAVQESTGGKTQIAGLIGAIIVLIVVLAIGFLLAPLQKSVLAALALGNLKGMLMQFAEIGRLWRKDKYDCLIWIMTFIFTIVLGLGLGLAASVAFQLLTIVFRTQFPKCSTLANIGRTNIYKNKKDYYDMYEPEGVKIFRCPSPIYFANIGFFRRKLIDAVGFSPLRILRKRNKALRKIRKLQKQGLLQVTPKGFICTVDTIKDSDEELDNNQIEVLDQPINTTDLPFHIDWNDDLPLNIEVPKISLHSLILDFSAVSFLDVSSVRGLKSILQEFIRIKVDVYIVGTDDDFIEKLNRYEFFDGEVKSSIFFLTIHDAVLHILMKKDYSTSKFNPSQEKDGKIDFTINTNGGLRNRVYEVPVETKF
The test can be described thus: SLC26A3-mediated Cl-/I- exchange in HEK cells expressing SLC26A3 and YFP. It counts as cell-based. As for the experimental part:
Inhibition of (human) SLC26A3 by Compound A1 was also tested, using a HEK cell model expressing SLC26A3 and YFP.
To generate a cell line enriched for expression of SLC26A3, HEK293 cells were transduced with lentiviral particles generated with the pLVX-IRES-mCherry-SLC26A3 transfer vector and then transfected to express YFP.
HEK293 cells transfected with pIRES-YFP-slc26a9 were plated in 96-well black-walled, clear-bottom tissue culture plates (Corning Life Sciences, Tewksbury, MA) after coating with FNC Coating Mix (AthenaES, Baltimore, MD). […] Assays of slc26a9-mediated anion exchange were done by initially recording YFP fluorescence prior to addition of 100 µL of NaI-substituted PBS to test wells, with the initial rate of Cl^-/I^- exchange deduced from fluorescence intensity by single exponential regression. […] To assay SLC26A3 function, HEK293 cells transduced with lentiviral particles generated from the pLVX-IRES-mCherry-SLC26A3 transfer vector were transfected to express YFP for Cl^-/I^- exchange assays as described above; red fluorescence images were acquired to confirm SLC26A3 expression in cells. […]

In the case of `Cc1c(CC(=O)O)c(=O)oc2c(C)c(OCc3cccc(Br)c3)ccc12` [Compound A1], the t½ for inhibition at murine slc26a3 (1 µM, incubation for different times prior to Cl-/I- exchange) was ~ 30 s. Also, the IC50 was roughly 200 nM on murine slc26a3 (summary over three anion exchange modes, read-out: IC50 for slc26a3-mediated Cl- exchange with HCO3-, I- and SCN-); roughly 300 nM on slc26a3; roughly 250 nM on (human) SLC26A3 (HEK cells). On (human) SLC26A3 (higher concentrations), the “extent of inhibition of SLC26A3-mediated Cl-/I- exchange” value is listed as “complete inhibition”.
